# Patent US8691865B2 (AbbVie Inc., priority 2008, dated 2014)
# Like-named read-outs stand apart in the source and are kept apart here.
# Biological target: human Cav2.2 (Homo sapiens, UniProt Q00975)
# Experiment: Assessment of calcium channel activity using FLIPR (Ca2+ influx in IMR32 cells)
# Format: cell-based
# How it was run: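 Human neuroblastoma IMR32 cells were seeded at 1−1.2×10^5 cells/well and cultured 48 h at 37 °C before FLIPR calcium influx measurement. Percent inhibition at each concentration was calculated against the no-inhibitor signal, and IC50 came from sigmoidal dose-response fits.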
# [1] = read-out: IC50 (μM) or percent inhibition (* indicates 3 minute incubation, otherwise 60 minute), IC50, 60 minute pre-incubation with compound, IMR32 cells, 80 mM KCl depolarization
# human Cav2.2, sequence (Q00975 whole entry): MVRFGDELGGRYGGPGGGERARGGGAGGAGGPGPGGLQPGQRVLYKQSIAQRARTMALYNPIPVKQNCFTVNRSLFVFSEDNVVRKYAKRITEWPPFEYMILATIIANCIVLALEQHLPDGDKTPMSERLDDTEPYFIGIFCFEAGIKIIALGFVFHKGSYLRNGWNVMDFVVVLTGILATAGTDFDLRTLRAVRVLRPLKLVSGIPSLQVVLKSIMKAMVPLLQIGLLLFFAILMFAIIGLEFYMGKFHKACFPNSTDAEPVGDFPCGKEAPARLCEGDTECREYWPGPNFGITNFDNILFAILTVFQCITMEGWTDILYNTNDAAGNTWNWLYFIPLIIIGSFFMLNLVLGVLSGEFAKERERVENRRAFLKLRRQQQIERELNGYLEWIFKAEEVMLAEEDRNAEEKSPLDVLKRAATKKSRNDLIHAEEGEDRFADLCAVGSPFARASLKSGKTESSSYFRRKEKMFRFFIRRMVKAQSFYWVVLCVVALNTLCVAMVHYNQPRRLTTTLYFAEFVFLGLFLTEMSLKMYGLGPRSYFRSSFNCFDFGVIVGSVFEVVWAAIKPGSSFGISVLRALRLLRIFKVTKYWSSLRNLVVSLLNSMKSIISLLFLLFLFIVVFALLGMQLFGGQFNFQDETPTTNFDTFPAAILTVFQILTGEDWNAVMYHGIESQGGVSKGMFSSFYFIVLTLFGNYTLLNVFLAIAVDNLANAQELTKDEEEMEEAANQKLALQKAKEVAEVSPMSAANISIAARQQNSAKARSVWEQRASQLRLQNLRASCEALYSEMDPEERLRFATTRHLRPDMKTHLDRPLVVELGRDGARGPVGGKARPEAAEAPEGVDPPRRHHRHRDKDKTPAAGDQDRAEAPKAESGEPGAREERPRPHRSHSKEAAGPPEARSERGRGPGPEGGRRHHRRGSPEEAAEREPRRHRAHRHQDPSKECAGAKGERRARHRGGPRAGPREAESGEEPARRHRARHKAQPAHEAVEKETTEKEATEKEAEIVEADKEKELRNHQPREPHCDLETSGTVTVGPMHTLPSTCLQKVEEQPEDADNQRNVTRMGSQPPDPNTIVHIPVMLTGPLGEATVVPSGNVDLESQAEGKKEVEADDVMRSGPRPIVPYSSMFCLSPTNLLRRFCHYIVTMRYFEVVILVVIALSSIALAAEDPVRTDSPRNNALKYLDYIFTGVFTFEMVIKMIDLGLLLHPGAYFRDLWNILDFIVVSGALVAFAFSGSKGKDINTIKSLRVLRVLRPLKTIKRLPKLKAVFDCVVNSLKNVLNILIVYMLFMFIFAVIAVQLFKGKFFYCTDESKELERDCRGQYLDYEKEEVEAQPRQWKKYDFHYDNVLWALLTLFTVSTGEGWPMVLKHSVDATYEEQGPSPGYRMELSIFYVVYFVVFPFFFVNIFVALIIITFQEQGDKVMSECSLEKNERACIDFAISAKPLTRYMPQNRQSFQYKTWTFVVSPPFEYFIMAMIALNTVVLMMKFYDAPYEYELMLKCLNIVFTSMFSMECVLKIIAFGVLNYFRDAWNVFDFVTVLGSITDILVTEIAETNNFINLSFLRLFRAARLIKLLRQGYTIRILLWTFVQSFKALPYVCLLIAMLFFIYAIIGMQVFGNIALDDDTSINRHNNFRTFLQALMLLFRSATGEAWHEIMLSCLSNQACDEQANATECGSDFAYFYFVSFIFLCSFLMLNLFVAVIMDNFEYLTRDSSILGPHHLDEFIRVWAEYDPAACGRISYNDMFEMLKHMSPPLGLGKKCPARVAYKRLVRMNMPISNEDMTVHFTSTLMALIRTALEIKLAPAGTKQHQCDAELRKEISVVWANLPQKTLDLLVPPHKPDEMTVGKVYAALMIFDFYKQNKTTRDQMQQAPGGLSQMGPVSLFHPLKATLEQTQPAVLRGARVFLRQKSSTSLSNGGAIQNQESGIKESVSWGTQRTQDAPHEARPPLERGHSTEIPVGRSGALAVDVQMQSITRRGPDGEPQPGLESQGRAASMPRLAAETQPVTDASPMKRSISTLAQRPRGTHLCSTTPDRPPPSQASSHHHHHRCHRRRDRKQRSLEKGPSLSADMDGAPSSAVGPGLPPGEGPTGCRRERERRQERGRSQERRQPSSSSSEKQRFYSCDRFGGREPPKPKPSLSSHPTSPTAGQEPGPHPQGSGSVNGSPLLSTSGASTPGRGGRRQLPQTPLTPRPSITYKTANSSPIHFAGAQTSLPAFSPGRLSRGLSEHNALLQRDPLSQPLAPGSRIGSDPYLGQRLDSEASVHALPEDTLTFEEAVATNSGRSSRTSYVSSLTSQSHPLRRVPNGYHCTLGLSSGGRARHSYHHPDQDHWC
# human Cav2.2, sequence (P54289 25-956 partner limits assumed): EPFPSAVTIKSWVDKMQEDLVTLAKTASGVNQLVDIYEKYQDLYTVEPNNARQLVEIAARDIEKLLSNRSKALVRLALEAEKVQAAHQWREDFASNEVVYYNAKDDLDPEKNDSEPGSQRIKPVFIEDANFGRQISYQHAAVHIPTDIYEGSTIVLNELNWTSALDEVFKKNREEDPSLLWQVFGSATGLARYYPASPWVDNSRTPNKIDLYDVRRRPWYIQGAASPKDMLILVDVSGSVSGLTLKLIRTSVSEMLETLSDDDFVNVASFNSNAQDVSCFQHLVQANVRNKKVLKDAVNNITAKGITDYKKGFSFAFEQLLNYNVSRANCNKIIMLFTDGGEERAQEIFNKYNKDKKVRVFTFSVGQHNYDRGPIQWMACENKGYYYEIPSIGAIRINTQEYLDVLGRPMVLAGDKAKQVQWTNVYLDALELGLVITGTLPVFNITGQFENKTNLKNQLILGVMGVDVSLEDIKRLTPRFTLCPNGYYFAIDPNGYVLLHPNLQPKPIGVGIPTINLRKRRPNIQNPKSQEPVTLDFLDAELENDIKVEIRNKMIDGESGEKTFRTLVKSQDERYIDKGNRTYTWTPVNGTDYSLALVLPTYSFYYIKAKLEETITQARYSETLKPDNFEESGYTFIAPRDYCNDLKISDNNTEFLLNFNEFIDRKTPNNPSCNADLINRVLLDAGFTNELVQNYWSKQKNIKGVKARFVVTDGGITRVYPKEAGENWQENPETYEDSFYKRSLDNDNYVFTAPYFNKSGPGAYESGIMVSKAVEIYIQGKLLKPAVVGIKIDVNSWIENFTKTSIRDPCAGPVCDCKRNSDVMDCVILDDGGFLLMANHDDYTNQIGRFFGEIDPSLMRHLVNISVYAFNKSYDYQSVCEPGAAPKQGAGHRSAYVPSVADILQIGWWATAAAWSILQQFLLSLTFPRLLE
# human Cav2.2, sequence (P54289 957-1103 partner limits assumed): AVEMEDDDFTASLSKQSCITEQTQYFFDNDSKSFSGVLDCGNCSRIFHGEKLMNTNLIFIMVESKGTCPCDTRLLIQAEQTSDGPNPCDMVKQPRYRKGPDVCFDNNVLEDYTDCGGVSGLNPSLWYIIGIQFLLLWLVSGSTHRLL
# human Cav2.2, sequence (P54284 whole entry partner): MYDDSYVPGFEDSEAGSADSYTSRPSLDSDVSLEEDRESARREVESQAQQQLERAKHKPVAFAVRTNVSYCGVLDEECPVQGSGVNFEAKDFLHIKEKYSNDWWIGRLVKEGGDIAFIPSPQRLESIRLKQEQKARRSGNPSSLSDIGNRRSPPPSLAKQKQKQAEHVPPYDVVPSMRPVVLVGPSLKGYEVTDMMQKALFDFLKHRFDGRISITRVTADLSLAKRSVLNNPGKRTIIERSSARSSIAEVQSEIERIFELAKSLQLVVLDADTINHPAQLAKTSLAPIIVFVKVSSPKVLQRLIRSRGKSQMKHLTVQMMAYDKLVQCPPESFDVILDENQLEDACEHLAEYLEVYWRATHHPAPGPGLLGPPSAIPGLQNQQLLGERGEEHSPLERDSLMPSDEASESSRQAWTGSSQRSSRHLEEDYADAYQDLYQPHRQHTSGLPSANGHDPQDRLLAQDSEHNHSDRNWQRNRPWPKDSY
Compound,IC50 [µM],IC50 [1] [µM],also measured
"FC(F)(F)c1cccc(N2C[C@H]3CC[C@H](NCc4c[nH]c5ccccc45)[C@H]3C2)n1 [Example 684, (3aR,4S,6aS)-N-(1H-indol-3-ylmethyl)-2-[6-(trifluoromethyl)pyridin-2-yl]octahydrocyclopenta[c]pyrrol-4-amine]",1.05,,
"CN[C@H](C(=O)N[C@H]1CC[C@@H]2CN(c3cccc(C(F)(F)F)n3)C[C@@H]21)C(C)C [Example 764, N^2-methyl-N-{(3aR,4S,6aS)-2-[6-(trifluoromethyl)pyridin-2-yl]octahydrocyclopenta[c]pyrrol-4-yl}-L-valinamide]",0.95,,
"CN[C@@H](CC(C)C)C(=O)N[C@H]1CC[C@@H]2CN(c3cccc(C#N)c3)C[C@@H]21 [Example 646, N-[(3aR,4S,6aS)-2-(3-cyanophenyl)octahydrocyclopenta[c]pyrrol-4-yl]-N^2-methyl-L-leucinamide]",2.16,,
"CCC[C@H](NC)C(=O)N[C@H]1CC[C@@H]2CN(c3cccc(C(F)(F)F)n3)C[C@@H]21 [Example 588, N^2-methyl-N-{(3aR,4S,6aS)-2-[6-(trifluoromethyl)pyridin-2-yl]octahydrocyclopenta[c]pyrrol-4-yl}-L-norvalinamide]",1.02,,
"O=S(=O)(N[C@H]1CC[C@H]2CN(Cc3cccc(C(F)(F)F)c3)C[C@H]21)c1cccc(C(F)(F)F)c1 (relative stereo) [Example 185, 3-(trifluoromethyl)-N-{(3aS*,4S*,6aR*)-2-[3-(trifluoromethyl)benzyl]octahydrocyclopenta[c]pyrrol-4-yl}benzenesulfonamide]",,0.91,
"O=C(Nc1ccc(F)c(Cl)c1)N[C@H]1CC[C@@H]2CN(c3cccc(C(F)(F)F)n3)C[C@@H]21 [Example 714, 1-(3-chloro-4-fluorophenyl)-3-{(3aR,4S,6aS)-2-[6-(trifluoromethyl)pyridin-2-yl]octahydrocyclopenta[c]pyrrol-4-yl}urea]",2.8,,
"CCC[C@H](NC)C(=O)N[C@H]1CC[C@@H]2CN(S(=O)(=O)c3ccco3)C[C@@H]21 [Example 547, N^1-[(3aR,4S,6aS)-2-(2-furylsulfonyl)octahydrocyclopenta[c]pyrrol-4-yl]-N^2-methyl-L-norvalinamide]",> 30,,
"CC(C)C(C(=O)N[C@H]1CC[C@@H]2CN(Cc3ccccc3)C[C@@H]21)c1ccccc1 (stereo partly drawn) [Example 35, N-[(3aR,4S,6aS)-2-benzyloctahydrocyclopenta[c]pyrrol-4-yl]-3-methyl-2-phenylbutanamide]",,3.26,
"FC(F)(F)c1cccc(N2C[C@H]3CC[C@H](NCc4c[nH]cn4)[C@H]3C2)n1 [Example 677, (3aR,4S,6aS)-N-(1H-imidazol-4-ylmethyl)-2-[6-(trifluoromethyl)pyridin-2-yl]octahydrocyclopenta[c]pyrrol-4-amine]",3.35,,
"CC(C)(C)[C@H](NS(C)(=O)=O)C(=O)N[C@H]1CC[C@@H]2CN(Cc3ccc(C(F)(F)F)cc3)C[C@@H]21 [Example 520, 3-methyl-N^2-(methylsulfonyl)-N^1-{(3aR,4S,6aS)-2-[4-(trifluoromethyl)benzyl]octahydrocyclopenta[c]pyrrol-4-yl}-L-valinamide]",,12.8,
"CC(C)C[C@H](NCC(C)(C)C)C(=O)N[C@H]1CC[C@@H]2CN(Cc3ccccc3)C[C@@H]21 [Example 244, N^1-[(3aR,4S,6aS)-2-benzyloctahydrocyclopenta[c]pyrrol-4-yl]-N^2-neopentyl-L-leucinamide]",,9.11,
"O=C(N[C@@H]1CC[C@H]2CN(Cc3ccccc3)C[C@H]21)C(c1ccccc1)C1CCCCC1 (relative stereo) [Example 4, N-[(3aS*,4R*,6aR*)-2-benzyloctahydrocyclopenta[c]pyrrol-4-yl]-2-cyclohexyl-2-phenylacetamide]",,,"IC50 (IC50 (μM) or percent inhibition (* indicates 3 minute incubation, otherwise 60 minute), IC50, 3 minute pre-incubation (*), IMR32 cells, 80 mM KCl depolarization): 3.5 µM"
"CC(C)(C)C(C(=O)N[C@H]1CC[C@@H]2CN(Cc3ccccc3)C[C@@H]21)c1ccccc1 (stereo partly drawn) [Example 52, N-[(3aR,4S,6aS)-2-benzyloctahydrocyclopenta[c]pyrrol-4-yl]-3,3-dimethyl-2-phenylbutanamide]",,3.36,
"CC(C)C[C@@H](C(=O)N[C@@H]1CC[C@H]2CN(Cc3ccccc3)C[C@H]21)N(C)C(=O)OC(C)(C)C [Example 151, N^1-[(3aS,4R,6aR)-2-benzyloctahydrocyclopenta[c]pyrrol-4-yl]-N^2-(tert-butyloxycarbonyl)-N^2-methyl-L-leucinamide]",,0.71,
"CN[C@@H](CC(C)C)C(=O)N[C@H]1CC[C@@H]2CN(c3ccc(Cl)cc3)C[C@@H]21 [Example 639, N-[(3aR,4S,6aS)-2-(4-chlorophenyl)octahydrocyclopenta[c]pyrrol-4-yl]-N^2-methyl-L-leucinamide]",7.77,,
"CC[C@H](C)[C@H](NC)C(=O)N[C@H]1CC[C@@H]2CN(S(=O)(=O)c3ccc(C(F)(F)F)cc3)C[C@@H]21 [Example 411, N^2-methyl-N^1-((3aR,4S,6aS)-2-{[4-(trifluoromethyl)phenyl]sulfonyl}octahydrocyclopenta[c]pyrrol-4-yl)-L-isoleucinamide]",2.31,,

Compound,IC50 [µM],IC50 [1] [µM],also measured
"CC(C)C[C@@H](NC(=O)OC(C)(C)C)C(=O)N[C@H]1CC[C@H]2CN(Cc3cccc(C(F)(F)F)c3)C[C@H]21 (stereo in doubt) [Example 138, N^2-(tert-butyloxycarbonyl)-N^1-{(3aS*,4S*,6aR*)-2-[3-(trifluoromethyl)benzyl]octahydrocyclopenta[c]pyrrol-4-yl}-D-leucinamide]",,0.82,
"COc1ccc(-c2n[nH]cc2CN[C@H]2CC[C@@H]3CN(c4cccc(C(F)(F)F)n4)C[C@@H]32)cc1 [Example 681, (3aR,4S,6aS)-N-{[3-(4-methoxyphenyl)-1H-pyrazol-4-yl]methyl}-2-[6-(trifluoromethyl)pyridin-2-yl]octahydrocyclopenta[c]pyrrol-4-amine]",0.98,,
"COc1ccccc1N1C[C@H]2CC[C@H](NC(=O)[C@@H]3C[C@@H](F)CN3)[C@H]2C1 [Example 662, (4R)-4-fluoro-N-[(3aR,4S,6aS)-2-(2-methoxyphenyl)octahydrocyclopenta[c]pyrrol-4-yl]-L-prolinamide]",> 30,,
"CC(C)CN[C@H]1CC[C@@H]2CN(c3cccc(C(F)(F)F)n3)C[C@@H]21 [Example 610, (3aR,4S,6aS)-N-isobutyl-2-[6-(trifluoromethyl)pyridin-2-yl]octahydrocyclopenta[c]pyrrol-4-amine]",2.01,,
"CC(C)C(C(=O)N[C@@H]1CC[C@H]2CN(Cc3cccc(C(F)(F)F)c3)C[C@H]21)c1ccccc1 (stereo partly drawn) [Example 82, 3-methyl-2-phenyl-N-{(3aS,4R,6aR)-2-[3-(trifluoromethyl)benzyl]octahydrocyclopenta[c]pyrrol-4-yl}butanamide]",,1.48,
"CC(C)C[C@H](O)C(=O)N[C@H]1CC[C@@H]2CN(c3cccc(C(F)(F)F)n3)C[C@@H]21 [Example 567, (2S)-2-hydroxy-4-methyl-N-{(3aR,4S,6aS)-2-[6-(trifluoromethyl)pyridin-2-yl]octahydrocyclopenta[c]pyrrol-4-yl}pentanamide]",0.4,,
"4-methyl-N^1-{(3aR,4S,6aS)-2-[2-(methylsulfonyl)pyrimidin-5-yl]octahydrocyclopenta[c]pyrrol-4-yl}-L-leucinamide [Example 442]",,7.18,
"Cc1cccc(C)c1CN1C[C@H]2CC[C@H](NC(=O)C(c3ccccc3)C(C)C)[C@H]2C1 (stereo partly drawn) [Example 93, N-[(3aR,4S,6aS)-2-(2,6-dimethylbenzyl)octahydrocyclopenta[c]pyrrol-4-yl]-3-methyl-2-phenylbutanamide]",,3.26,
"Cc1cccc2c(CN[C@H]3CC[C@@H]4CN(c5cccc(C(F)(F)F)n5)C[C@@H]43)c[nH]c12 [Example 671, (3aR,4S,6aS)-N-[(7-methyl-1H-indol-3-yl)methyl]-2-[6-(trifluoromethyl)pyridin-2-yl]octahydrocyclopenta[c]pyrrol-4-amine]",1.53,,
"CN[C@@H](CC(C)C)C(=O)N[C@H]1CC[C@@H]2CN(c3ccc(SC(F)(F)F)cc3)C[C@@H]21 [Example 707, N^2-methyl-N-[(3aR,4S,6aS)-2-{4-[(trifluoromethyl)thio]phenyl}octahydrocyclopenta[c]pyrrol-4-yl]-L-leucinamide]",7.26,,
"CN[C@@H](CC(C)C)C(=O)N[C@H]1CC[C@@H]2CN(Cc3ccccc3)C[C@@H]21 [Example 348, N^1-[(3aR,4S,6aS)-2-benzyloctahydrocyclopenta[c]pyrrol-4-yl]-N^2-methyl-L-leucinamide]",> 30,,
"CC(C)C[C@H](NS(C)(=O)=O)C(=O)N[C@@H]1CC[C@H]2CN(Cc3ccccc3)C[C@H]21 [Example 243, N^1-[(3aS,4R,6aR)-2-benzyloctahydrocyclopenta[c]pyrrol-4-yl]-N^2-(methylsulfonyl)-L-leucinamide]",,8.58,
"CCC[C@H](NC(C)C)C(=O)N[C@H]1CC[C@@H]2CN(Cc3ccccc3)C[C@@H]21 [Example 494, N^1-[(3aR,4S,6aS)-2-benzyloctahydrocyclopenta[c]pyrrol-4-yl]-N^2-isopropyl-L-norvalinamide]",> 30,,
"CN[C@@H](CC(C)C)C(=O)N[C@@H]1CC[C@H]2CN(c3ccc(C(F)(F)F)cc3)C[C@H]21 [Example 740, N^2-methyl-N-{(3aS,4R,6aR)-2-[4-(trifluoromethyl)phenyl]octahydrocyclopenta[c]pyrrol-4-yl}-L-leucinamide]",2,,
"CC(C)C(C(=O)N[C@H]1CC[C@@H]2CN(CCC(c3ccc(F)cc3)c3ccc(F)cc3)C[C@@H]21)c1ccccc1 (stereo partly drawn) [Example 117, N-{(3aR,4S,6aS)-2-[3,3-bis(4-fluorophenyl)propyl]octahydrocyclopenta[c]pyrrol-4-yl}-3-methyl-2-phenylbutanamide]",,0.88,
"O=C(N[C@@H]1CC[C@H]2CN(S(=O)(=O)c3ccc(F)cc3)C[C@H]21)[C@@H]1CCCCN1 [Example 399, (2S)-N-{(3aS,4R,6aR)-2-[(4-fluorophenyl)sulfonyl]octahydrocyclopenta[c]pyrrol-4-yl}piperidine-2-carboxamide]",,15.3,
